Data reported in patent US10208019B2, “GLP-1 receptor agonists and uses thereof” (Pfizer Inc., priority 2016, dated 2019).
pEC50: −log10 of the molar value. Counter-ions that a name gives are not always drawn. Like-named read-outs stand apart in the source and are kept apart here.

What was measured:
human GLP-1R [1] = target: human GLP-1R (Homo sapiens (Human), UniProt P43220, L260F); experiment: CHO GLP-1R Clone C6—Assay 2: HTRF cAMP cell-based functional agonist assay (low GLP-1R density); conditions: for pEC50: CHO GLP-1R Clone C6, cAMP HTRF, geometric mean; for Emax: read-out: Assay 2 Emax (%)
Sequence of human GLP-1R (Homo sapiens (Human), UniProt P43220, L260F) (P43220 24-463 L260F): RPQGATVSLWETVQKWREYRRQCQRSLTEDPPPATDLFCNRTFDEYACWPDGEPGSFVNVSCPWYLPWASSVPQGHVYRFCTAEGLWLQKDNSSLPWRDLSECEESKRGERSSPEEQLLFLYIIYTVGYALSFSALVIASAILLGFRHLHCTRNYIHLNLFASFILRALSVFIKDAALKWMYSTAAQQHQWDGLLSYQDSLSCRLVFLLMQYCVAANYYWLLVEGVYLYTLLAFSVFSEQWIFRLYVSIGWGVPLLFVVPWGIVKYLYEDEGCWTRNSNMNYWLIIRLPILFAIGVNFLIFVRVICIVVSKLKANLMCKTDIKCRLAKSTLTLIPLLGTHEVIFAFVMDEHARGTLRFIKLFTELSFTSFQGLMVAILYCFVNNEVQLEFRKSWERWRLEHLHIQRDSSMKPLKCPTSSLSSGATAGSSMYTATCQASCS
Procedure: GLP-1R-mediated agonist activity was determined with a cell-based functional assay utilizing an HTRF (Homogeneous Time-Resolved Fluorescence) cAMP detection kit (cAMP HI Range Assay Kit; Cis Bio cat #62AM6PEJ) that measures cAMP levels in the cell. The method is a competitive immunoassay between native cAMP produced by the cells and exogenous cAMP labeled with the dye d2. The tracer binding is visualized by a mAb anti-cAMP labeled with Cryptate. The specific signal (i.e. energy transfer) is inversely proportional to the concentration of cAMP in either a standard or an experimental sample.
The human GLP-1R coding sequence (NCBI Reference Sequence NP_002053.3, including naturally-occurring variant Leu260Phe) was subcloned into pcDNA5-FRT-TO and a clonal CHO cell line stably expressing a low receptor density was isolated using the Flp-In™ T-Rex™ System, as described by the manufacturer (ThermoFisher).
Cells were removed from cryopreservation, re-suspended in 40 mL of Dulbecco's Phosphate Buffered Saline (DPBS-Lonza Cat #17-512Q) and centrifuged at 800×g for 5 min at 22° C. The DPBS was aspirated, and the cell pellet was re-suspended in 10 mL of complete growth medium (DMEM:F12 1:1 Mixture with HEPES, L-Gln, 500 mL (DMEM/F12 Lonza Cat #12-719F), 10% heat inactivated fetal bovine serum (Gibco Cat #16140-071), 5 mL of 100× Pen-Strep (Gibco Cat #15140-122), 5 mL of 100× L-Glutamine (Gibco Cat #25030-081), 700 μg/mL Hygromycin (Invitrogen Cat #10687010) and 15 μg/mL Blasticidin (Gibco Cat #R21001). A 1 mL sample of the cell suspension in growth media was counted on a Becton Dickinson ViCell to determine cell viability and cell count per mL. The remaining cell suspension was then adjusted with growth media to deliver 1600 viable cells per well using a Matrix Combi Multidrop reagent dispenser, and the cells were dispensed into a white 384 well tissue culture treated assay plate (Corning 3570). The assay plate was then incubated for 48 h at 37° C. in a humidified environment (95% O2, 5% CO2)
Varying concentrations of each compound to be tested (in DMSO) were diluted in assay buffer [HBSS with Calcium/Magnesium (Lonza/BioWhittaker cat #10-527F)/0.1% BSA (Sigma Aldrich cat #A7409-1L)/20 mM HEPES (Lonza/BioWhittaker cat #17-737E)] containing 100 μM 3-isobutyl-1-methylxanthin (IBMX; Sigma cat #15879). The final DMSO concentration in the compound/assay buffer mixture is 1%.
After 48 h, the growth media was removed from the assay plate wells, and the cells were treated with 20 μL of the serially diluted compound in assay buffer for 30 min at 37° C. in a humidified environment (95% O2, 5% CO2). Following the 30 min incubation, 10 μL of labeled d2 cAMP and 10 μL of anti-cAMP antibody (both diluted 1:20 in cell lysis buffer; as described in the manufacturer's assay protocol) were added to each well of the assay plate. The plates were then incubated at room temperature and after 60 minutes, changes in the HTRF signal were read with an Envision 2104 multi-label plate reader using excitation of 330 nm and emissions of 615 and 665 nm. Raw data were converted to nM cAMP by interpolation from a cAMP standard curve (as described in the manufacturer's assay protocol) and the percent effect was determined relative to a saturating concentration of the full agonist GLP-1 (1 μM) included on each plate. EC50 determinations were made from agonist dose response curves analyzed with a curve fitting program using a 4-parameter logistic dose response equation.

human GLP-1R [2] = target: human GLP-1R (Homo sapiens, UniProt P43220, G168S); experiment: CHO GLP-1R Clone H6—Assay 1: HTRF cAMP cell-based functional agonist assay (high GLP-1R density); conditions: for pEC50: read-out: Assay 1 EC50; for pEC50 / EC50: CHO GLP-1R Clone H6, cAMP HTRF, geometric mean; for EC50: Assay 1 EC50 (nM)
Sequence of human GLP-1R (Homo sapiens, UniProt P43220, G168S) (P43220 24-463 G168S limits assumed): as the sequence (P43220 24-463 L260F) above, with G145S, F237L counted along it

[3] = CHO GLP-1R Clone C6, relative to saturating concentration of full agonist GLP-1 (1 μM), arithmetic mean
[4] = read-out: Assay 1 Emax (%), CHO GLP-1R Clone H6, relative to saturating concentration of full agonist GLP-1 (1 μM), arithmetic mean

SMILES | pEC50 (human GLP-1R [1]) | Emax (human GLP-1R [1]; [3]) [%] | pEC50 (human GLP-1R [2]) | Emax (human GLP-1R [2]; [4]) [%] | EC50 (human GLP-1R [2]) [nM] | Assay 2 Emax (%) (human GLP-1R [1]; [3]) | Emax (human GLP-1R [1]) [%] | Emax (human GLP-1R [2]; read-out: Assay 1 Emax (%)) [%]
COCCn1c(CN2CCC(c3cccc(OCc4ccc(C)cc4)n3)CC2)nc2ccc(C(=O)O)cc21 [Example 8A-01, Ammonium 2-((4-(6-((4-Methylbenzyl)oxy)pyridin-2-yl)piperidin-1-yl)methyl)-1-(2-methoxyethyl)-1H-benzo[d]imidazole-6-carboxylate] | 5.96 | 90 | 7.00 | 99 | – | – | – | –
Cn1c(CN2CCC(c3cccc(OCc4ccc(Cl)cc4F)n3)CC2)nc2cc(Cl)c(C(=O)O)cc21 [Example 2A-13, 5-chloro-2-[(4-{6-[(4-chloro-2-fluorobenzyl)oxy]pyridin-2-yl}piperidin-1-yl)methyl]-1-methyl-1H-benzimidazole-6-carboxylic acid] | < 4.82 | 100 | 6.11 | 78 | – | – | – | –
CCn1cnnc1Cn1c(CN2CCC(c3cccc(OCc4ccc(Cl)cc4F)n3)CC2)nc2ccc(C(=O)O)cc21 [Example 10A-07] | 7.17 | 81 | 8.55 | 82 | – | – | – | –
N#Cc1ccc(COc2cccc(C3CCN(Cc4nc5ccc(C(=O)O)cc5n4CC4CCCO4)CC3)n2)cc1 (single isomer, unassigned; enantiomer 2) [Example 14A-02, 2-[(4-{6-[(4-cyanobenzyl)oxyhoyridin-2-yl}piperidin-1-yl)methyl]-1-(tetrahydrofuran-2-ylmethyl)-1H-benzimidazole-6-carboxylic acid,enantiomer 2] | 5.82 | – | 7.03 | – | – | 69 | – | –
N#Cc1ccc(COc2cccc(C3CCN(Cc4nc5ccc(C(=O)O)nc5n4Cc4ncco4)CC3)n2)c(F)c1 [Example 2A-19, 2-[(4-{6-[(4-cyano-2-fluorobenzyl)oxy]pyridin-2-yl}piperidin-1-yl)methyl]-3-(1,3-oxazol-2-ylmethyl)-3H-imidazo[4,5-b]pyridine-5-carboxylic acid] | 6.82 | 100 | 8.10 | 80 | – | – | – | –
Cn1c(CN2CCC(c3cccc(OCc4ccc(Cl)cc4F)n3)CC2)nc2cc(F)c(C(=O)O)cc21 [Example 2A-09, 2-[(4-{6-[(4-chloro-2-fluorobenzyl)oxy]pyridin-2-yl}piperidin-1-yl)methyl]-5-fluoro-1-methyl-1H-benzimidazole-6-carboxylic acid] | 5.66 | 83 | 6.92 | 76 | – | – | – | –
Cn1c(CN2CCC(c3cccc(OCc4ccc(Cl)cc4F)n3)CC2)nc2ccc(C(=O)O)nc21 [Example 2A-01, 2-((4-(6-((4-Chloro-2-fluorobenzyl)oxy)pyridin-2-yl)piperidin-1-yl)methyl)-3-methyl-3H-imidazo[4,5-b]pyridine-5-carboxylic acid hydrochloride] | 5.74 | – | 7.05 | – | – | – | 89 | 76
C[C@H]1CN(c2cccc(OCc3ccc(Cl)cc3F)n2)CCN1Cc1nc2ccc(C(=O)O)cc2n1Cc1cocn1 [Example 10A-13] | 6.77 | 75 | 8.39 | 67 | – | – | – | –
COCCn1c(CN2CC[C@@H](c3cccc(OCc4ccc(Cl)cc4F)n3)[C@H](O)C2)nc2ccc(C(=O)O)cc21 (racemic) [Example 1A-23, rac-2-{[(3S,4S)-4-{6-[(4-chloro-2-fluorobenzyl)oxy]pyridin-2-yl}-3-hydroxypiperidin-1-yl]methyl}-1-(2-methoxyethyl)-1H-benzimidazole-6-carboxylic acid] | 6.00 | 98 | – | 83 | 50 | – | – | –
N#Cc1ccc(COc2cccc(C3CCN(Cc4nc5ccc(C(=O)O)cc5n4Cc4ncco4)CC3)n2)c(F)c1 [Example 7A-01, 2-[(4-{6-[(4-cyano-2-fluorobenzyl)oxy]pyridin-2-yl}piperidin-1-yl)methyl]-1-(1,3-oxazol-2-ylmethyl)-1H-benzimidazole-6-carboxylic acid] | – | 86 | – | 84 | – | – | – | –
N#Cc1ccc(COc2cccc(C3CCN(Cc4nc5ccc(C(=O)O)nc5n4C[C@@H]4CCO4)CC3)n2)c(F)c1 [Example 6A-01, 2-[(4-{6-[(4-cyano-2-fluorobenzyl)oxy]pyridin-2-yl}piperidin-1-yl)methyl]-3-[(2S)-oxetan-2-ylmethyl]-3H-imidazo[4,5-b]pyridine-5-carboxylic acid] | 8.06 | 100 | 9.12 | 88 | – | – | – | –
COCCn1c(CN2CCC(c3cccc(OCc4ccc(Cl)cc4F)n3)CC2)nc2ncc(C(=O)O)nc21 [Example 2A-10, 2-[(4-{6-[(4-chloro-2-fluorobenzyl)oxy]pyridin-2-yl}piperidin-1-yl)methyl]-1-(2-methoxyethyl)-1H-imidazo[4,5-b]pyrazine-6-carboxylic acid] | 6.17 | 110 | 7.37 | 82 | – | – | – | –
CO[C@H]1C[C@@H](Cn2c(CN3CCC(c4cccc(OCc5ccc(Cl)cc5F)n4)CC3)nc3ccc(C(=O)O)cc32)C1 [Example 1A-28, 2-[(4-{6-[(4-chloro-2-fluorobenzyl)oxy]pyridin-2-yl}piperidin-1-yl)methyl]-1-[(cis-3-methoxycyclobutyl)methyl]-1H-benzimidazole-6-carboxylic acid] | 5.11 | 100 | – | 92 | 300 | – | – | –
N#Cc1ccc(COc2cccc(C3CCN(Cc4nc5ccc(C(=O)O)cc5n4C[C@@H]4CCCO4)CC3)n2)c(F)c1 [Example 1A-21, 2-[(4-{6-[(4-cyano-2-fluorobenzyl)oxy]pyridin-2-yl}piperidin-1-yl)methyl]-1-[(2S)-tetrahydrofuran-2-ylmethyl]-1H-benzimidazole-6-carboxylic acid] | 7.12 | 83 | 8.31 | 77 | – | – | – | –

Continued, in another order:

pEC50 (human GLP-1R [1]) | Emax (human GLP-1R [1]; [3]) [%] | pEC50 (human GLP-1R [2]) | Emax (human GLP-1R [2]; [4]) [%] | EC50 (human GLP-1R [2]) [nM] | SMILES | Assay 2 Emax (%) (human GLP-1R [1]; [3]) | Emax (human GLP-1R [1]) [%] | Emax (human GLP-1R [2]; read-out: Assay 1 Emax (%)) [%]
7.55 | 97 | 8.54 | 96 | – | CCn1nncc1Cn1c(CN2CCN(c3cccc(OCc4ccc(C#N)cc4F)n3)CC2)nc2ccc(C(=O)O)cc21 [Example 10A-62, 2-[(4-{6-[(4-cyano-2-fluorobenzyl)oxy]pyridin-2-yl}piperazin-1-yl)methyl]-1-[(1-ethyl-1H-1,2,3-triazol-5-yl)methyl]-1H-benzimidazole-6-carboxylic acid] | – | – | –
< 4.70 | – | < 4.82 | 98 | – | Cc1nnc(Cn2c(CN3CCC(c4cccc(OCc5ccc(Cl)cc5F)n4)CC3)nc3ccc(C(=O)O)cc32)n1C [Example 10A-20] | – | – | –
6.85 | 76 | 8.07 | 64 | – | O=C(O)c1ccc2nc(CN3CCN(c4cccc(OCc5ccc(Cl)cc5F)n4)CC3)n(C[C@H]3CCO3)c2c1 [Example 10A-48] | – | – | –
6.82 | 97 | 8.21 | 89 | – | COCCn1c(CN2CCN(c3cccc(OCc4ccc(C#N)cc4)n3)C[C@@H]2C)nc2ccc(C(=O)O)cc21 [Example 12A-08, 2-{[(2S)-4-{6-[(4-cyanobenzyl)oxy]pyridin-2-yl}-2-methylpiperazin-1-yl]methyl}-1-(2-methoxyethyl)-1H-benzimidazole-6-carboxylic acid] | – | – | –
7.54 | 95 | 8.82 | 80 | – | N#Cc1ccc(COc2cccc(N3CCN(Cc4nc5ccc(C(=O)O)cc5n4Cc4ncco4)CC3)n2)c(F)c1 [Example 10A-34, 2-[(4-{6-[(4-cyano-2-fluorobenzyl)oxy]pyridin-2-yl}piperazin-1-yl)methyl]-1-(1,3-oxazol-2-ylmethyl)-1H-benzimidazole-6-carboxylic acid] | – | – | –
6.70 | 81 | 7.68 | 82 | – | COC(C)(C)Cn1c(CN2CCC(c3cccc(OCc4ccc(Cl)cc4F)n3)CC2)nc2ccc(C(=O)O)cc21 [Example 11A-22, 2-[(4-{6-[(4-chloro-2-fluorobenzyl)oxy]pyridin-2-yl}piperidin-1-yl)methyl]-1-(2-methoxy-2-methylpropyl)-1H-benzimidazole-6-carboxylic acid] | – | – | –
7.70 | 87 | 8.70 | 84 | – | CCn1nncc1Cn1c(CN2CCC(c3cccc(OCc4ccc(C#N)cc4F)n3)CC2)nc2ccc(C(=O)O)cc21 [Example 10A-69, 2-[(4-{6-[(4-cyano-2-fluorobenzyl)oxy]pyridin-2-yl}piperidin-1-yl)methyl]-1-[(1-ethyl-1H-1,2,3-triazol-5-yl)methyl]-1H-benzimidazole-6-carboxylic acid] | – | – | –
6.64 | 110 | 7.82 | 83 | – | COCCn1cnnc1Cn1c(CN2CCC(c3cccc(OCc4ccc(Cl)cc4F)n3)CC2)nc2ccc(C(=O)O)cc21 [Example 11A-19, 2-[(4-{6-[(4-chloro-2-fluorobenzyl)oxy]pyridin-2-yl}piperidin-1-yl)methyl]-1-{[4-(2-methoxyethyl)-4H-1,2,4-triazol-3-yl]methyl}-1H-benzimidazole-6-carboxylic acid] | – | – | –
6.57 | 83 | 7.74 | 82 | – | Cn1nccc1Cn1c(CN2CCC(c3cccc(OCc4ccc(Cl)cc4F)n3)CC2)nc2ccc(C(=O)O)cc21 [Example 11A-21, 2-[(4-{6-[(4-chloro-2-fluorobenzyl)oxy]pyridin-2-yl}piperidin-1-yl)methyl]-1-[(1-methyl-1H-pyrazol-5-yl)methyl]-1H-benzimidazole-6-carboxylic acid] | – | – | –
